Values of other authors as cited in patent US20240170108A1, “METHOD AND SYSTEM FOR GENE EXPRESSION PREDICTION-BASED SCREENING OF DRUG-LIKE MOLECULES” (Tata Consultancy Services Limited, priority 2022, published 2024).

Test system: VCAP cell line
Conditions: 10 μM concentration dose, 6 hrs of exposure

## O=c1cc(-c2ccc(O)cc2)oc2cc(O[C@@H]3O[C@H](CO)[C@@H](O)[C@H](O)[C@H]3O)cc(O)c12 [Cosmosiin]
Gene APP
  Characteristic Direction, APP (Gene ID 351): −0.0047
Gene ARHGEF12
  Characteristic Direction, ARHGEF12 (Gene ID 23365): −0.0376
Gene ASAH1
  Characteristic Direction, ASAH1 (Gene ID 427): −0.0172
Gene ATF1
  Characteristic Direction, ATF1 (Gene ID 466): −0.0167
Gene BRCA1
  Characteristic Direction, BRCA1 (Gene ID 672): −0.0305
Gene CSNK1A1
  Characteristic Direction, CSNK1A1 (Gene ID 1452): −0.0011
Gene EED
  Characteristic Direction, EED (Gene ID 8726): −0.0170
Gene EGF
  Characteristic Direction, EGF (Gene ID 1950): 0.0114
Gene ETV1
  Characteristic Direction, ETV1 (Gene ID 2115): −0.0108
Gene FOXO3
  Characteristic Direction, FOXO3 (Gene ID 2309): −0.0187
Gene HLA-DMA
  Characteristic Direction, HLA-DMA (Gene ID 3108): −0.0178
Gene IL1B
  Characteristic Direction, IL1B (Gene ID 3553): 0.0082
Gene NFATC4
  Characteristic Direction, NFATC4 (Gene ID 4776): −0.0087
Gene NOS3
  Characteristic Direction, NOS3 (Gene ID 4846): 0.0363
Gene PSMD4
  Characteristic Direction, PSMD4 (Gene ID 5710): −0.0161
Gene PSME1
  Characteristic Direction, PSME1 (Gene ID 5720): −0.0142
Gene RALA
  Characteristic Direction, RALA (Gene ID 5898): 0.0206
Gene RHEB
  Characteristic Direction, RHEB (Gene ID 6009): 0.0037
Gene RHOA
  Characteristic Direction, RHOA (Gene ID 387): −0.0166
Gene SERPINE1
  Characteristic Direction, SERPINE1 (Gene ID 5054): −0.0407
Gene SOX2
  Characteristic Direction, SOX2 (Gene ID 6657): 0.0276
Gene TBP
  Characteristic Direction, TBP (Gene ID 6908): −0.0084
Gene TERT
  Characteristic Direction, TERT (Gene ID 7015): 0.0054
